# Molecular target: ATX (human His-tagged) (Homo sapiens (Human), UniProt Q13822)
# Assay: Human ATX enzyme inhibition assay (fluorescence quenching, MR121 substrate)
# Type: biochemical
# Settings: 30 nM ATX, 1 μM MR121 substrate, 30° C., pH 8.0
# How it was run: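 Fluorescence-quenching assay using MR121 substrate at 1 μM final, incubated 15 min at 30 °C. Buffer was 50 mM Tris-HCl pH 8.0 with 140 mM NaCl, 5 mM KCl, 1 mM CaCl2, 1 mM MgCl2 and 0.01% Triton X-100.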
row,SMILES,IC50
1,"O=C(c1cnc(OCC(F)(F)F)c(C2CC2)c1)N1C[C@@H]2CN(C(=O)c3ccc4[nH]nnc4c3)C[C@H]2C1 [Example 19.42, ((3aS,6aS)-5-(1H-benzo[d][1,2,3]triazole-5-carbonyl)hexahydropyrrolo[3,4-c]pyrrol-2(1H)-yl)(5-cyclopropyl-6-(2,2,2-trifluoroethoxy)pyridin-3-yl)methanone]",0.01 µM
2,N#Cc1ccc(/C=C/C(=O)N2CC[C@@H]3CN(Cc4ccc5[nH]nnc5c4)C[C@@H]3CC2)cc1 [Example 6.05],0.179 µM
3,"CC(C)c1cc(C#N)ccc1COC(=O)N1C[C@@H]2CN(C(=O)[C@@H]3CCc4[nH]nnc4C3)C[C@H]2C1 [Example 4.46, (3aS,6aS)-5-((R)-4,5,6,7-tetrahydro-1H-benzotriazole-5-carbonyl)-hexahydro-pyrrolo[3,4-c]pyrrole-2-carboxylic acid 4-cyano-2-isopropyl-benzyl ester]",0.005 µM
4,"COCCOc1ncc(C(=O)N2C[C@@H]3CN(C(=O)c4ccc5[nH]nnc5c4)C[C@H]3C2)cc1Br [Example 19.40, ((3aS,6aS)-5-(1H-benzo[d][1,2,3]triazole-5-carbonyl)hexahydropyrrolo[3,4-c]pyrrol-2(1H)-yl)(5-bromo-6-(2-methoxyethoxy)pyridin-3-yl)methanone]",0.1 µM
5,"O=C(OCCC1C2CC3CC(C2)CC1C3)N1C[C@@H]2CN(C(=O)c3ccc4[nH]nnc4c3)C[C@@H]2C1 (stereo partly drawn) [Example 4.16, (3aS,6aR)-5-(1H-benzotriazole-5-carbonyl)-hexahydro-pyrrolo[3,4-c]pyrrole-2-carboxylic acid 2-adamantan-2-yl-ethyl ester]",0.398 µM
6,"CC1C(COC(=O)N2C[C@@H]3CN(C(=O)c4ccc5[nH]nnc5c4)C[C@@H]3C2)[C@H]2CC[C@@H]1C2 (stereo partly drawn) [Example 4.31, (3aS,6aR)-5-(1H-benzotriazole-5-carbonyl)-hexahydro-pyrrolo[3,4-c]pyrrole-2-carboxylic acid (1S,4R)-3-methyl-bicyclo[2.2.1]hept-2-ylmethyl ester]",1.82 µM
7,"O=C(OCc1cc(Cl)cc(Cl)c1)N1C[C@@H]2CN(C(=O)C3CCc4[nH]nnc4C3)C[C@@H]2C1 (stereo partly drawn) [Example 1.13, (3aR,6aS)-3,5-dichlorobenzyl 5-(4,5,6,7-tetrahydro-1H-benzo[d][1,2,3]triazole-5-carbonyl)hexahydropyrrolo[3,4-c]pyrrole-2(1H)-carboxylate]",0.226 µM
8,O=C(/C=C/c1ccc(Cl)c(Cl)c1)N1CC[C@@H]2CN(C(=O)c3ccc4[nH]nnc4c3)C[C@@H]2CC1 [Example 15.31],0.038 µM
9,"CS(=O)(=O)c1cc(COC(=O)N2C[C@@H]3CN(C(=O)c4ccc5[nH]nnc5c4)C[C@@H]3C2)cc(C(F)(F)F)c1 [Example 4.07, (3aS,6aR)-5-(1H-benzotriazole-5-carbonyl)-hexahydro-pyrrolo[3,4-c]pyrrole-2-carboxylic acid 3-methanesulfonyl-5-trifluoromethyl-benzyl ester]",0.016 µM
10,"O=C(/C=C/c1ccc(SC(F)(F)F)cc1)N1CC[C@@H]2CN(C(=O)c3ccc4[nH]nnc4c3)C[C@@H]2CC1 [Example 15.69, (E)-1-((3aR,8aS)-2-(1H-benzo[d][1,2,3]triazole-5-carbonyl)octahydropyrrolo[3,4-d]azepin-6(7H)-yl)-3-(4-(trifluoromethylthio)phenyl)prop-2-en-1-one]",0.008 µM
11,"O=C(OCc1ccc(OC(F)(F)F)cc1)N1C[C@@H]2CN(C(=O)c3cc4nn[nH]c4cn3)C[C@H]2C1 [Example 1.51, (3aS,6aS)-5-(3H-[1,2,3]triazolo[4,5-c]pyridine-6-carbonyl)-hexahydro-pyrrolo[3,4-c]pyrrole-2-carboxylic acid 4-trifluoromethoxy-benzyl ester]",0.041 µM
12,"COc1ccc(OCC(=O)N2CC[C@@H]3CN(C(=O)c4ccc5[nH]nnc5c4)C[C@@H]3CC2)c(C(C)(C)C)c1 [Example 1.42, 1-[(3aS,8aR)-2-(1H-benzotriazole-5-carbonyl)-1,3,3a,4,5,7,8,8a-octahydropyrrolo[3,4-d]azepin-6-yl]-2-(2-tert-butyl-4-methoxyphenoxy)ethanone]",0.007 µM
13,O=C(/C=C/c1ccccc1)N1CC[C@@H]2CN(C(=O)c3ccc4[nH]nnc4c3)C[C@@H]2CC1 [Example 15.15],0.156 µM
14,"O=C(OCc1cc(Cl)cc(Cl)c1)N1C[C@H]2CCN(C(=O)c3ccc4[nH]nnc4c3)C[C@@H]2C1 (relative stereo) [Example 12B, trans-3,5-dichlorobenzyl 5-(1H-benzo[d][1,2,3]triazole-5-carbonyl)-hexahydro-lH-pyrrolo[3,4-c]pyridine-2(3H)-carboxylate]",0.005 µM
15,"CCOc1nc(C(=O)N2C[C@@H]3CN(C(=O)[C@@H]4CCc5[nH]nnc5C4)C[C@H]3C2)cc2ccccc12 [Example 19.35, [(3aS,6aS)-5-[(5R)-4,5,6,7-tetrahydro-1H-benzotriazole-5-carbonyl]-1,3,3a,4,6,6a-hexahydropyrrolo[3,4-c]pyrrol-2-yl]-(1-ethoxyisoquinolin-3-yl)methanone]",0.002 µM
16,"O=C(/C=C/c1ccc(OC(F)(F)F)cc1)N1CC[C@@H]2CN(C(=O)C3CCc4[nH]nnc4C3)C[C@@H]2CC1 (stereo partly drawn) [Example 1, (E)-1-[(3aS,8aR)-2-(4,5,6,7-Tetrahydro-1H-benzotriazole-5-carbonyl)-octahydro-pyrrolo[3,4-d]azepin-6-yl]-3-(4-trifluoromethoxy-phenyl)-prop-2-en-1-one]",0.008 µM
17,"O=C(CCc1ccc(-c2ccccc2)cn1)N1C[C@@H]2CN(C(=O)c3ccc4[nH]nnc4c3)C[C@H]2C1 [Example 17.10, 1-[(3aR,6aR)-5-(1H-benzotriazole-5-carbonyl)-hexahydro-pyrrolo[3,4-c]pyrrol-2-yl]-3-(5-phenyl-pyridin-2-yl)-propan-1-one]",0.021 µM
18,O=C(COc1ccccc1-n1cccc1)N1C[C@@H]2CN(C(=O)c3ccc4[nH]nnc4c3)C[C@H]2C1 [Example 15.92],0.249 µM
19,"O=C(OCc1ccc(OC(F)(F)F)cc1F)N1C[C@@H]2CN(C(=O)[C@@H]3CCc4[nH]nnc4C3)C[C@H]2C1 [Example 4.48, (3aS,6aS)-5-((R)-4,5,6,7-tetrahydro-1H-benzotriazole-5-carbonyl)-hexahydro-pyrrolo[3,4-c]pyrrole-2-carboxylic acid 2-fluoro-4-trifluoromethoxy-benzyl ester]",0.003 µM
20,"O=C(CCc1ccc(OC(F)(F)F)cc1)N1CC[C@@H]2CN(C(=O)c3ccc4[nH]nnc4c3)C[C@H]2C1 (relative stereo) [Example 17.15, 1-[trans-2-(1H-benzotriazole-5-carbonyl)-octahydro-pyrrolo[3,4-c]pyridin-5-yl]-3-(4-trifluoromethoxy-phenyl)-propan-1-one]",0.047 µM
21,"O=C(CCc1ccc(OC(F)(F)F)cc1)N1CC[C@@H]2CN(Cc3ccc4[nH]nnc4c3)C[C@H]2C1 (relative stereo) [Example 17.16, 1-[trans-2-(1H-benzotriazol-5-ylmethyl)-octahydro-pyrrolo[3,4-c]pyridin-5-yl]-3-(4-trifluoromethoxy-phenyl)-propan-1-one]",0.309 µM
